Assay results published in US20230263822A1, “MODULATION OF FACTOR 11 EXPRESSION” (Ionis Pharmaceuticals, Inc., priority 2008, published 2023).
Strand notation (5' to 3'): a small letter for the sugar, then the base; units joined by * are phosphorothioate-linked, units joined directly phosphodiester-linked; [ ] holds rarer units or linkages, { } end groups; capitals alone tell only the bases. e = 2'-O-(2-methoxyethyl) (MOE); [5mC] = 5-methylcytosine; d = 2'-deoxy (DNA)

Assays:
[1] = system: mouse Factor 11 mRNA; assay: Cross-reactive antisense inhibition of murine Factor 11 in primary mouse hepatocytes, 100 nM (Example 9); type: cell-based; conditions: ~24 hours
Procedure: Antisense oligonucleotides targeted to a murine factor 11 nucleic acid were tested for their effects on Factor 11 mRNA in vitro. Cultured primary mouse hepatocytes at a density of 10,000 cells per well were treated with 100 nM antisense oligonucleotide. After a treatment period of approximately 24 hours, RNA was isolated from the cells and mouse Factor 11 mRNA levels were measured by quantitative real-time PCR. Factor 11 mRNA levels were adjusted according to total RNA content, as measured by RIBOGREEN. Results are presented as percent inhibition of Factor 11, relative to untreated control cells.
The chimeric antisense oligonucleotides in Tables 16 were designed as 5-10-5 MOE gapmers. The gapmers are 20 nucleotides in length, wherein the central gap segment is comprised of 10 2′-deoxynucleotides and is flanked on both sides (in the 5′ and 3′ directions) by wings comprising 5 nucleotides each. Each nucleotide in the 5′ wing segment and each nucleotide in the 3′ wing segment has a 2′-MOE modification. The internucleoside linkages throughout each gapmer are phosphorothioate (P=S) linkages. All cytidine residues throughout each gapmer are 5-methylcytidines. “Mouse target start site” indicates the 5′-most nucleotide to which the gapmer is targeted. “Mouse target stop site” indicates the 3′-most nucleotide to which the gapmer is targeted. All the mouse oligonucleotides listed show cross-reactivity between the mouse Factor 11 mRNA (GENBANK Accession No. NM_028066.1), incorporated herein as SEQ ID NO: 6 and the human Factor 11 mRNA (GENBANK Accession No. NM_000128.3), incorporated herein as SEQ ID NO: 1. “Human Target Start Site” indicates the 5′-most nucleotide in the human mRNA (GENBANK Accession No. NM_000128.3) to which the antisense oligonucleotide is targeted. “Human Target Stop Site” indicates the 3′-most nucleotide in the human mRNA (GENBANK Accession No. NM_000128.3) to which the antisense oligonucleotide is targeted. “Number of mismatches” indicates the mismatches between the mouse oligonucleotide and the human mRNA sequence.

[2] = system: murine Factor 11 mRNA; assay: In vivo antisense inhibition of murine Factor 11 mRNA in liver (Example 10); conditions: BALB/c mice, relative to PBS control
Procedure: (§1) BALB/c mice were injected with 5 mg/kg, 10 mg/kg, 25 mg/kg, or 50 mg/kg of ISIS 404057 or ISIS 404071 twice a week for 3 weeks. A control group of mice was injected with phosphate buffered saline (PBS) twice a week for 3 weeks. Mice were sacrificed 5 days after receiving the last dose. Whole liver was harvested for RNA analysis and plasma was collected for clotting analysis (PT and aPTT) and protein analysis.
RNA was extracted from liver tissue for real-time PCR analysis of Factor 11. […] Results are presented as percent inhibition of Factor 11, relative to control.

[3] = Collagenase-induced intracerebral hemorrhage model: hemorrhage volume, neurologic deficit score, mortality (Example 25); type: in vivo, BALB/c mice
Procedure: In a first cohort, ISIS 404071 was administered subcutaneously to BALB/c mice twice a week for two weeks at a dose 40 mg/kg. […] In a third cohort, ISIS 421208 ([…], 8 mismatches to murine Factor 11, incorporated herein as SEQ ID NO: 14) was administered subcutaneously to BALB/c mice twice a week for two weeks at a dose 40 mg/kg. In a fourth cohort, PBS was administered to BALB/c mice twice a week for two weeks.
Two days after receiving their final dose, all mice in all cohorts were anesthetized with […] of avertin. Next, the mice were injected at −1 mm AP, 1 mm R ML, −4 mm DV from bregma flat skull with a 10 μL Hamilton syringe containing 0.075 U collagenase (150 U/mL). Collagenase was delivered over 5 minutes and the needle was kept in place for an additional 5 minutes to prevent reflux. The mice were then analyzed for hemorrhagic size, neurologic deficit score, and mortality.
Table 37 presents the hemorrhage volume detected in mice after collagenase treatment, Table 38 presents the neurologic deficit score of the mice, and Table 39 presents the mortality rate of the mice. Neurological deficit is measured by a standard scoring system where no deficiency is zero and severe deficit is five.

[4] = system: mouse Factor 11 mRNA; assay: Sense-oligonucleotide antidote: Factor 11 mRNA in liver (Example 23); type: in vivo, BALB/c mice
Procedure: The effect of the specific sense oligonucleotide to ISIS 404071 as an antidote was tested in BALB/c mice. In a first cohort, ISIS 404071 was administered subcutaneously to BALB/c mice twice a week for three weeks at a dose of 40 mg/kg. In a second cohort, ISIS 404057 was administered subcutaneously to BALB/c mice twice a week for three weeks at a dose of 40 mg/kg. The ISIS 404071 specific antidote, ISIS 418026 ([…]; complementary to ISIS 404071), incorporated herein as SEQ ID NO: 13, was administered to both cohorts subcutaneously in a single injection of 90 mg/kg 48 hours after the final treatment of ISIS 404071 or 404057. In a third cohort, ISIS 404071 was administered subcutaneously to BALB/c mice twice a week for three weeks at a dose of 40 mg/kg. Following the last treatment of ISIS 404071, mice were injected subcutaneously injected with PBS. In a fourth cohort, ISIS 404057 was administered subcutaneously to BALB/c mice twice a week for three weeks at a dose of 40 mg/kg. Following the last treatment of ISIS 404057, mice were injected subcutaneously injected with PBS. Following antidote administration, a set of 4 mice from each cohort were sacrificed at 12 hours, 1 day, 2 days, 3 days, 7 days, and 14 days. Whole liver was collected for RNA analysis and PPP was collected for aPTT analysis.
RNA was extracted from liver tissue for real-time PCR analysis of Factor 11. Results are presented as percent inhibition of Factor 11, relative to PBS control.

[5] = mouse, in vivo, sc, 50 mg/kg
[6] = mouse, in vivo, sc, 50 mg/kg; remark: listed apart in the source
[7] = mouse, in vivo, sc, 50 mg/kg; remark: listed apart in the source
[8] = system: blood coagulation; assay: PT and aPTT assay in platelet poor plasma (Example 10); type: in vivo; conditions: BALB/c mice
Procedure: as §1
Prothrombin Time (PT) and Activated Partial Thromboplastin Time (aPTT) were measured using platelet poor plasma (PPP) from mice treated with ISIS 404057 and ISIS 404071. PT and aPTT values provided in Table 18 are reported as International Normalized Ratio (INR) values. INR values for PT and aPTT were determined by dividing the PT or aPTT value for each experimental group (i.e. 5 mg/kg, 10 mg/kg, 25 mg/kg, and 50 mg/kg treatment with ISIS 404057 or ISIS 404071) by the PT or aPTT for the PBS treated group. This ratio was then raised to the power of the International Sensitivity Index (ISI) of the tissue factor used.

[9] = 5 mg/kg twice a week for 3 weeks
[10] = 10 mg/kg twice a week for 3 weeks
[11] = 25 mg/kg twice a week for 3 weeks
[12] = 50 mg/kg twice a week for 3 weeks
[13] = 5-50 mg/kg twice a week for 3 weeks

404067 (antisense eG*eG*eG*eA*eA*dA*dA*dT*dG*dT*d[5mC]*d[5mC]*d[5mC]*dT*dG*eA*eT*eA*e[5mC]*eA) [compound 404067]
% Inhibition of mouse Factor 11 mRNA levels [1]: 39%

404071 (antisense eT*eG*eG*eT*eA*dA*dT*d[5mC]*d[5mC]*dA*d[5mC]*dT*dT*dT*d[5mC]*eA*eG*eA*eG*eG) [compound 404071]
% inhibition of murine Factor 11 mRNA [2, 9]: 72% | % inhibition of murine Factor 11 mRNA [2, 10]: 82% | % inhibition of murine Factor 11 mRNA [2, 11]: 93% | % inhibition of murine Factor 11 mRNA [2, 12]: 96%

ISIS 421208: TCGGAAGCGACTCTTATATG, 8 mismatches to murine Factor 11 (listed as DNA, chemistry not given here) [reference compound]
Hemorrhagic volume after collagenase treatment ([3]; 40 mg/kg s.c. twice a week for two weeks): 41 mm^3 | Neurologic Deficit Score after collagenase treatment ([3]; 40 mg/kg s.c. twice a week for two weeks, score zero (no deficiency) to five (severe deficit)): 2.0 | % mortality after collagenase treatment ([3]; ISIS oligonucleotides 40 mg/kg s.c., warfarin 2 mg/kg intraperitoneally, twice a week for two weeks): 0%

404055 (eT*eG*eT*eT*eA*dT*dA*dG*dT*dT*d[5mC]*dA*dT*dG*d[5mC]*e[5mC]*e[5mC]*eT*eT*e[5mC]; antisense) [compound 404055]
% Inhibition of mouse Factor 11 mRNA levels [1]: 27%

404087 (antisense eT*eT*e[5mC]*eT*eT*dG*dA*dA*d[5mC]*d[5mC]*d[5mC]*dT*dG*dA*dA*eG*eA*eA*eA*eG) [compound 404087]
% Inhibition of mouse Factor 11 mRNA levels [1]: 29%

ISIS 418026: ISIS 404071 specific antidote, CCTCTGAAAGTGGATTACCA; complementary to ISIS 404071 (listed as DNA, chemistry not given here)
inhibition of Factor 11 mRNA expression in ISIS 404057 treated mice ([4]; BALB/c mice, ISIS 404057 40 mg/kg then ISIS 418026 90 mg/kg): had no effect on inhibition of Factor 11 mRNA expression

404066 (eA*eA*eT*eG*eT*d[5mC]*d[5mC]*d[5mC]*dT*dG*dA*dT*dA*d[5mC]*dA*eA*eG*e[5mC]*e[5mC]*eA; antisense) [compound 404066]
% Inhibition of mouse Factor 11 mRNA levels [1]: 37%

404050 (eT*eG*e[5mC]*eT*eT*dG*dA*dA*dG*dG*dA*dA*dT*dA*dT*e[5mC]*e[5mC]*eA*eG*eA; antisense) [compound 404050]
% Inhibition of mouse Factor 11 mRNA levels [1]: 82%

ISIS 445532: 5-8-5 or 6-8-6 MOE microwalk gapmer (Table 44) (antisense CGGCATTGGTGCACAGTT; sugars from the 5' end e5 d8 e5, backbone and methylation of C not given here)
ALT [5]: 395 IU/L | AST [5]: 360 IU/L | Albumin [5]: 2.9 | Bilirubin [5]: 0.20 mg/dL | BUN [6]: 23 mg/dL | HCT [7]: 48% | Lymphocyte [7]: 5490 | Neutrophil [7]: 1116 | Platelets [7]: 689 | RBC [7]: 9.7 | WBC [7]: 7 | hemoglobin [7]: 14.8 g/dL

404089 (antisense eT*eG*eA*eA*eT*dT*dA*dT*d[5mC]*dA*dT*dT*dT*d[5mC]*dT*eT*eG*eA*eA*e[5mC]) [compound 404089]
% Inhibition of mouse Factor 11 mRNA levels [1]: 6%

ISIS 404057: antisense oligonucleotide targeted to murine Factor 11 mRNA, TCCTGGCATTCTCGAGCATT, target start site 487 (antisense eT*e[5mC]*e[5mC]*eT*eG*dG*d[5mC]*dA*dT*dT*d[5mC]*dT*d[5mC]*dG*dA*eG*e[5mC]*eA*eT*eT)
Percent inhibition of mouse Factor 11 mRNA compared to PBS control ([4]; 3 days after antidote/PBS, antisense 40 mg/kg s.c. twice a week for three weeks, ISIS 418026 90 mg/kg single injection where given): 95% | PT INR [8, 9]: 1.00 | aPTT INR [8, 9]: 1.07 | PT INR [8, 10]: 0.94 | aPTT INR [8, 10]: 1.19 | PT INR [8, 11]: 1.02 | aPTT INR [8, 11]: 1.27 | PT INR [8, 12]: 1.00 | aPTT INR [8, 12]: 1.37 | PT [8, 13]: not significantly prolonged | aPTT [8, 13]: prolonged in a dose-dependent manner

404057 (eT*e[5mC]*e[5mC]*eT*eG*dG*d[5mC]*dA*dT*dT*d[5mC]*dT*d[5mC]*dG*dA*eG*e[5mC]*eA*eT*eT) [compound 404057]
% inhibition of murine Factor 11 mRNA [2, 9]: 40% | % inhibition of murine Factor 11 mRNA [2, 10]: 64% | % inhibition of murine Factor 11 mRNA [2, 11]: 85% | % inhibition of murine Factor 11 mRNA [2, 12]: 95%

404090 (antisense eT*eG*eA*eT*e[5mC]*dA*dT*dG*dA*dA*dT*dT*dA*dT*d[5mC]*eA*eT*eT*eT*e[5mC]) [compound 404090]
% Inhibition of mouse Factor 11 mRNA levels [1]: 42%

404083 (antisense eT*eG*eT*eG*e[5mC]*dA*dG*dA*dG*dT*d[5mC]*dA*d[5mC]*d[5mC]*dT*eG*e[5mC]*e[5mC]*eA*eT) [compound 404083]
% Inhibition of mouse Factor 11 mRNA levels [1]: 47%

404054 (eT*eA*eG*eT*eT*d[5mC]*dA*dT*dG*d[5mC]*d[5mC]*d[5mC]*dT*dT*d[5mC]*eA*eT*eG*eT*e[5mC]; antisense) [compound 404054]
% Inhibition of mouse Factor 11 mRNA levels [1]: 45%
